Laboratory results published in US20120252737A1, “Methods for Diagnosing and Treating Cancer” (Massachusetts Institute of Technology, priority 2009, published 2012).

Key:
cdc25C = assay: Live-cell imaging of GFP.cdc25C nuclear entry after doxorubicin; type: cell-based; parameters: dose or concentration left out as unconfirmed
Protocol: GFP.cdc25B/C-expressing cells were subsequently infected with lentiviruses expressing luciferase-, MK2-, or Chk1-specific shRNA; treated with […] doxorubicin for 1 hour; and GFP localization monitored by live-cell imaging. Control cells mounted a cell-cycle checkpoint response and resumed mitotic cell division after ˜30 hours with the production of two intact daughter cells (top panels and top panel in FIG. 8B). MK2-depleted cells initiated a checkpoint response, which collapsed after ˜24 hours, invariably followed by a catastrophic mitotic event (middle panels and FIG. 8B, middle panel). Chk1-depleted cells entered a premature, catastrophic mitotic event at ˜16 hours following doxorubicin (middle panels and FIG. 8B, middle panel). […] Data are shown as box and whisker plots and represent 18 independent experiments for each cell line. The time of the first appearance of a mitotic figure was recorded. Asterisk indicates statistical significance. Mean values are shown with error bars indicating standard deviation.
Additional experiments were performed to determine whether the MK2-dependent regulation of Gadd45a that was required for maintenance of late cell-cycle arrest after DNA damage was related to the MK2-dependent phosphorylation and inactivation of Cdc25B and C. […] A strong interaction between Gadd45a and p38 was observed (FIG. 7A). In an additional set of experiments, Gadd45a was depleted using RNAi. The data from these experiments show a loss of p38-dependent MK2 phosphorylation specifically at late times after DNA damage (FIGS. 7B and 7C). […] The cells were treated with low dose ([…]) doxorubicin for 30 minutes and the subcellular localization of cdc25B/C monitored in live cells by time-lapse fluorescence microscopy. […]

U2OS cells = assay: FACS-based nocodazole trap experiment, pHH3 staining after doxorubicin; type: cell-based; parameters: pHH3-positive cells: dose or concentration left out as unconfirmed
Protocol: U2OS cells were infected with lentiviruses delivering luciferase-, MK2-, or Chk1-specific shRNAs (FIG. 1A). The ability of these cells to engage and maintain a functional cell-cycle checkpoint following genotoxic stress was analyzed using a FACS-based nocodazole trap experiment. […] In response to […] doxorubicin treatment for 1 hour, luciferase control shRNA-expressing cells mounted an intra-S and G2/M checkpoint response that remained stable for the 30-hour course of the experiment, as evidenced by the accumulation of a largely pHH3-negative 4N population (bottom panel, left, and FIG. 1B). MK2 shRNA-expressing cells initiated a functional intra-S, G2/M cell-cycle checkpoint that remained intact for at least 18 hours. At the 24-hour measurement, this checkpoint response started to decline with an increasing number of pHH3-positive cells showing a 4N DNA content, reflecting mitotically trapped cells (bottom panel, middle, and FIG. 1B). […] FIG. 1B is a quantification of pHH3 staining of the samples shown in FIG. 1A (n=7 experiments, mean values are shown with error bars indicating standard deviation).
Experiments were performed to determine the role of Chk1 and MK2 in the G2/M checkpoint in p53-deficient cells following DNA damage. In a first set of experiments, U2OS cells were infected with lentiviruses delivering luciferase-, MK2-, or Chk1-specific shRNAs. The ability of ability of these cells to engage and maintain functional cell-cycle checkpoint following genotoxic stress (1 hour of […] doxorubicin) was analyzed using a FACS-based nocodazole trap experiment. The data from these experiments are shown in FIG. 1A and are described below.
The above constructs were expressed in asynchronously growing Chk1- or MK2-knockdown cells, which were left untreated or exposed to doxorubicin for 1 hour, followed by addition of nocodazole for 2 hours after removal of doxorubicin, to capture cells escaping from DNA damage checkpoints in mitosis (FIG. 3B). As an additional control, cells were treated with nocodazole alone. The cells were harvested 30 hours after doxorubicin and cell-cycle disruption was assessed using FACS. […] This arrest was completely abrogated in cells expressing a Chk1 shRNA (FIGS. 3B and 3C).

SMILES: COc1cccc2c1C(=O)c1c(O)c3c(c(O)c1C2=O)C[C@@](O)(C(=O)CO)C[C@@H]3O[C@H]1C[C@H](N)[C@H](O)[C@H](C)O1 [doxorubicin]
- mean onset of nuclear entry of Cdc25C (cdc25C; Chk1-depleted cells): 15.3 ± 4.5 h
- mean appearance time of nuclear entry of Cdc25C (cdc25C; MK2-depleted cells): 22.4 ± 14.1 h
- time of first nuclear appearance of cdc25C (cdc25C; control (luciferase shRNA) cells): 30.3 ± 3.7 h
- pHH3-positive cells (U2OS cells; Chk1-depleted U2OS cells, 12 hours after doxorubicin (1 hour)): 7.7%
- pHH3-positive cells (U2OS cells; Chk1-depleted U2OS cells, 18 hours after doxorubicin (1 hour)): 15%
- pHH3-positive cells (U2OS cells; Chk1-depleted U2OS cells, 24 hours after doxorubicin (1 hour)): 25.6%
- pHH3-positive cells (U2OS cells; Chk1-depleted U2OS cells, 30 hours after doxorubicin (1 hour)): 29.5%
- pHH3-positive cells (U2OS cells; MK2-depleted U2OS cells, 24 hours after doxorubicin (1 hour)): 13.2%
- pHH3-positive cells (U2OS cells; MK2-depleted U2OS cells, 30 hours after doxorubicin (1 hour)): 28.5%
- mitotic cells with 4N DNA content staining positive for pHH3 (U2OS cells; MK2 knockdown U2OS cells, 30-hour course, localization-mutant experiment (FIGS. 3B, 3C)): 21.3%
- pHH3-positive cells (U2OS cells; MK2 knockdown U2OS cells, 12 hours after doxorubicin (1 hour)): 3.7%±1.2
- pHH3-positive cells (U2OS cells; MK2 knockdown U2OS cells, 18 hours after doxorubicin (1 hour)): 3.6±0.5%
- pHH3-positive cells (U2OS cells; shRNA control U2OS cells, 24 hours after doxorubicin (1 hour)): 0.9%
- pHH3-positive cells (U2OS cells; shRNA control U2OS cells, 30 hours after doxorubicin (1 hour)): 1.5%
